The text below walks through data of patent EP0609289B1, “IMIDAZOLE DERIVATIVES AND PHARMACEUTICAL COMPOSITIONS CONTAINING THE SAME” (THE UPJOHN COMPANY, priority 1991, dated 1993).

The assay addresses Angiotensin II receptor. As to the kind of experiment: In vitro angiotensin II mesenteric artery receptor binding assay (test 1). The settings on record: rat mesenteric artery membrane fraction, 0.2 nM 125I-Ang II, 22°C, 90 minutes. The method, then: I) In vitro angiotensin II mesenteric artery receptor binding assay
According to the method (1) by Gunther et al., a membrane fraction was prepared from mesenteric artery of male rat, […] protein equivalent of it and 0.2 nM ^125I-Ang II as well as various concentrations of test compounds were incubated at 22°C for 90 minutes in an incubation buffer (50 mM Tris-HCl, 120 mM NaCl, 5 mM MgCl2. 0.25% bovine serum albumin, pH 7.2) (reaction volume; 200 µl). The incubated was cooled, and the reaction was stopped by addition of ice-cooled phosphate buffer (10 mM phosphate, 140 mM NaCI, pH 7.4, hereinafter referred to as PBS), and then the reaction solution was filtered through a glass fiber filter (Whatman CF/B), the filter was washed, dried, and then the radioactivity of captured ^125I-angiotensin II which bound to the receptor was measured by a γ-counter. Non-specific bound amount was obtained from the reaction in the presence of 1 µM of unlabeled angiotensin II. […] Res., 17:278-286, 1980].
The term IC50 denotes the midpoint of a concentration-inhibition curve. Higher therefore signals weaker potency in that assay. Consider `CCCc1nc2c(=O)n3n(c(=O)c2[nH]1)C1CCC3(C(C)(C)O)CC1` [Compound No. 323, 5,8-ethano-5-(1-hydroxy-1-methylethyl)-2-n-propyl-5,6,7,8-tetrahydro-1H-1,3,4a,8a-tetraza-cyclopentanaphthalene-4,9-dione], for which the IC50 was greater than 100 nM.

The compound `CCCc1nc2c(=O)n3n(c(=O)c2n1Cc1ccc(-c2ccccc2-c2nn[nH]n2)cc1)C(C)CCC3c1nc(C)no1` (stereo not drawn) [Compound No. 329, 8-methyl-5-(3-methyloxadiazol-5-yl)-2-n-propyl-5,6,7,8-tetrahydro-1-[{2'-(1H-tetrazol-5-yl)biphenyl-4-yl}methyl]-1H-1,3,4a,8a-tetraza-cyclopentanaphthalene-4,9-dione] displayed an IC50 of 65 nM. In other words, the double-digit nanomolar range.

Regarding `CCCc1nc2c(=O)n3n(c(=O)c2n1Cc1ccc(-c2ccccc2-c2nn[nH]n2)cc1)C(c1nc(C)no1)CCC3C` (stereo not drawn) [Compound No. 331, 5-methyl-8-(3-methyloxadiazol-5-yl)-2-n-propyl-5,6,7,8-tetrahydro-1-[{2'-(1H-tetrazol-5-yl)biphenyl-4-yl}methyl]-1H-1,3,4a,8a-tetraza-cyclopentanaphthalene-4,9-dione], the IC50 came to 3.9 nM. Compared with the last compound, the IC50 is about 17-fold lower.

Turning to `CCCc1nc2c(=O)n3n(c(=O)c2n1Cc1ccc(-c2ccccc2-c2nn[nH]n2)cc1)CC(CC)=C(CC)C3` [Compound No. 359, 6,7-diethyl-5,8-dihydro-2-n-propyl-5,6,7,8-tetrahydro-1-[{2'-(1H-tetrazol-5-yl)biphenyl-4-yl}methyl]-1H-1,3,4a,8a-tetraza-cyclopentanaphthalene-4,9-dione], the IC50 stood at 35 nM.

The compound `CCCc1nc2c(n1Cc1ccc(-c3ccccc3-c3nn[nH]n3)cc1)C(=O)N1CC(C)C(C)CN1C2` (stereo not drawn) [Compound No. 378, 6,7-dimethyl-2-n-propyl-5,6,7,8-tetrahydro-1-[{2'-(1H-tetrazol-5-yl)biphenyl-4-yl}methyl]-1H,4H-1,3,4a,8a-tetraza-cyclopentanaphthalene-9-one] registered an IC50 of 4.6 nM. Compared with the last compound, the IC50 is about 7.6-fold lower.

`CCCc1nc2c(n1Cc1ccc(-c3ccccc3-c3nn[nH]n3)cc1)C(=O)N1CC(C)=C(C)CN1C2` [Compound No. 382, 5,8-dihydro-6,7-dimethyl-2-n-propyl-1-[{2'-(1H-tetrazol-5-yl)biphenyl-4-yl}methyl]-1H,4H-1,3,4a,8a-tetraza-cyclopentanaphthalene-9-one] showed an IC50 of 26 nM.

Consider `CCCc1nc2c(n1Cc1ccc(-c3ccccc3-c3nn[nH]n3)cc1)C(=O)N1CC(CC)=C(CC)CN1C2` [Compound No. 390, 6,7-diethyl-5,8-dihydro-2-n-propyl-1-[{2'-(1H-tetrazol-5-yl)biphenyl-4-yl}methyl]-1H,4H-1,3,4a,8a-tetraza-cyclopentanaphthalene-9-one], for which the IC50 worked out at 35 nM.

Take `CCCCc1nc2c(n1Cc1ccc(-c3ccccc3-c3nn[nH]n3)cc1)C(=O)N1C3CCC(C)(CC3)N1C2` [Compound No. 443, 2-n-butyl-5,8-ethano-5-methyl-5,6,7,8-tetrahydro-1-[{2'-(1H-tetrazol-5-yl)biphenyl-4-yl}methyl]-1H,4H-1,3,4a,8a-tetraza-cyclopentanaphthalene-9-one]: the IC50 is 1.3 nM.

For `CCCCc1nc2c(n1Cc1ccc(-c3ccccc3-c3nn[nH]n3)cc1)C(=O)N1N(C2)C2CCC1(C)CC2` [Compound No. 447, 2-n-butyl-5,8-ethano-8-methyl-5,6,7,8-tetrahydro-1-[{2'-(1H-tetrazol-5-yl)biphenyl-4-yl}methyl]-1H,4H-1,3,4a,8a-tetraza-cyclopentanaphthalene-9-one], the IC50 came out at 2.5 nM. Against the preceding compound, the IC50 is about 1.9-fold higher.

`CCc1nc2c(n1Cc1ccc(-c3ccccc3-c3nnn[nH]3)cc1)C(=O)N1N(C2)C2(CC)CCC1(CC)CC2` [Compound No. 453, 5,8-diethyl-5,8-ethano-2-ethyl-5,6,7,8-tetrahydro-1-[{2'-(1H-tetrazol-5-yl)biphenyl-4-yl}methyl]-1H,4H-1,3,4a,8a-tetraza-cyclopentanaphthalene-9-one] registered an IC50 greater than 100 nM.

For `CCCc1nc2c(n1Cc1ccc(-c3ccccc3-c3nnn[nH]3)cc1)C(=O)N1C(c3ccccc3)CCCN1C2` (stereo not drawn) [Compound No. 470, 8-phenyl-2-n-propyl-5,6,7,8-tetrahydro-1-[{2'-(1H-tetrazol-5-yl)biphenyl-4-yl}methyl]-1H,4H-1,3,4a,8a-tetraza-cyclopentanaphthalene-9-one], the IC50 amounted to 20 nM.

`CCCc1nc2c(n1Cc1ccc(-c3ccccc3-c3nnn[nH]3)cc1)CN1C3CCC(CC3)N1C2` [Compound No. 523, 5,8-ethano-4,5,6,7,8,9-hexahydro-2-n-propyl-1-[{2'-(1H-tetrazol-5-yl)biphenyl-4-yl}methyl]-1H-1,3,4a,8a-tetraza-cyclopentanaphthalene] gave an IC50 greater than 100 nM.

With `CCCCc1nc2c(n1Cc1ccc(-c3ccccc3-c3nnn[nH]3)cc1)CN1C(C)CCC(CO)N1C2=O` (stereo not drawn) [Compound No. 538, 2-n-butyl-5-hydroxymethyl-8-methyl-5,6,7,8-tetrahydro-1-[{2'-(1H-tetrazol-5-yl)biphenyl-4-yl}methyl]-1H-9H-1,3,4a,8a-tetraza-cyclopentanaphthalene-4-one], the IC50 is greater than 100 nM.

The compound `CCCCc1nc2c(n1Cc1ccc(-c3ccccc3-c3nnn[nH]3)cc1)CN1C(CO)CCC(C)N1C2=O` (stereo not drawn) [Compound No. 540, 2-n-butyl-8-hydroxymethyl-5-methyl-5,6,7,8-tetrahydro-1-[{2'-(1H-tetrazol-5-yl)biphenyl-4-yl}methyl]-1H,9H-1,3,4a,8a-tetraza-cyclopentanaphthalene-4-one] displayed an IC50 of 34 nM.

Take `CCCc1nc2c(=O)n3n(c(=O)c2n1Cc1ccc(-c2ccccc2-c2nn[nH]n2)cc1)C(C(=O)O)CCC3C` (stereo not drawn) [compound 56, 4,9-dioxo-5-methyl-2-n-propyl-5,6,7,8-tetrahydro-1-[(2'-(1H-tetrazol-5-yl)biphenyl-4-yl)methyl]-1H-1,3,4a,8a-tetraza-cyclopentanaphthalene-8-carboxylic acid]: the IC50 is greater than 30 nM.

The compound `CCCCc1nc2c(=O)n3n(c(=O)c2n1Cc1ccc(C(=O)O)cc1)C(C(=O)O)CCC3C` (stereo not drawn) [compound 121, 2-n-butyl-1-[(4-carboxyphenyl)methyl]-4,9-dioxo-5-methyl-5,6,7,8-tetrahydro-1H-1,3,4a,8a-tetraza-cyclopentanaphthalene-8-carboxylic acid] yielded a half-inhibitory concentration (IC50) greater than 100 nM.

In turn, `CCCCc1nc2c(=O)n3n(c(=O)c2n1Cc1ccc(C(=O)O)cc1)C(C)CCC3C(=O)O` (stereo not drawn) [compound 124, 2-n-butyl-1[(4-carboxyphenyl)methyl]-4,9-dioxo-8-methyl-5,6,7,8-tetrahydro-1H-1,3,4a,8a-tetraza-cyclopentanaphthalene-5-carboxylic acid] returned an IC50 greater than 100 nM.

In the case of `CCCCc1nc2c(=O)n3n(c(=O)c2n1Cc1ccc(-c2ccccc2-c2nn[nH]n2)cc1)C(C(=O)OCC)CCC3C` (stereo not drawn) [compound 167, ethyl 2-n-butyl-4,9-dioxo-5-methyl-5,6,7,8-tetrahydro-1-[{2'-(1H-tetrazol-5-yl)biphenyl-4-yl}methyl]-1H-1,3,4a,8a-tetraza-cyclopentanaphthalene-8-carboxylate], the IC50 came to 3.2 nM.

The compound `CCCc1nc2c(=O)n3n(c(=O)c2n1Cc1ccc(-c2ccccc2-c2nn[nH]n2)cc1)C(C)CCC3C` (stereo not drawn) [compound 337, 5,8-dimethyl-2-n-propyl-5,6,7,8-tetrahydro-1-[{2'-(1H-tetrazol-5-yl)biphenyl-4-yl}methyl]-1H-1,3,4a,8a-tetraza-cyclopentanaphthalene-4,9-dione] showed an IC50 of 4.6 nM.

Turning to `CCc1nc2c(=O)n3n(c(=O)c2n1Cc1ccc(-c2ccccc2-c2nn[nH]n2)cc1)C1(CC)CCC3(CC)CC1` [compound 355, 5,8-diethyl-5,8-ethano-2-ethyl-5,6,7,8-tetrahydro-1-[{2'-(1H-tetrazol-5-yl)biphenyl-4-yl}methyl]-1H-1,3,4a,8a-tetraza-cyclopentanaphthalene-4,9-dione], the IC50 is greater than 100 nM.

The compound `CCc1nc2c(=O)n3n(c(=O)c2n1Cc1ccc(-c2ccccc2-c2nn[nH]n2)cc1)C1(C)CCC3(C)CC1` [compound 361, 5,8-dimethyl-5,8-ethano-2-ethyl-5,6,7,8-tetrahydro-1-[{2'-(1H-tetrazol-5-yl)biphenyl-4-yl}methyl]-1H-1,3,4a,8a-tetraza-cyclopentanaphthalene-4,9-dione] registered an IC50 of 55 nM.

On to `C/C=C/c1nc2c(n1Cc1ccc(-c3ccccc3-c3nnn[nH]3)cc1)C(=O)N1N(C2)C2(CC)CCC1(CC)CC2` [compound 521, 5,8-diethyl-5,8-ethano-2-(1-E-propenyl)-5,6,7,8-tetrahydro-1-[{2'-(1H-tetrazol-5-yl)biphenyl-4-yl}methyl]-1H,4H-1,3,4a,8a-tetraza-cyclopentanaphthalene-9-one], for which the IC50 was 9.1 nM.

In turn, `CCc1nc2c(=O)n3n(c(=O)c2n1Cc1ccc(-c2ccccc2-c2nnn[nH]2)cc1)C1CCC3CC1` [compound 543, 5,8-ethano-2-ethyl-5,6,7,8-tetrahydro-1-[{2'-(1H-tetrazol-5-yl)biphenyl-4-yl}methyl)-1H-1,3,4a,8a-tetraza-cyclopentanaphthalene-4,9-dione] had an IC50 of 26 nM.

`CCCCc1nc2c(=O)n3n(c(=O)c2n1Cc1ccc(C(=O)O)cc1)C1CCC3CC1` [compound 544, 2-n-butyl-1-[(4-carboxyphenyl)methyl]-5,8-ethano-5,6,7,8-tetrahydro-1H-1,3,4a,8a-tetraza-cyclopentanaphthalene-4,9-dione] yielded a half-inhibitory concentration (IC50) greater than 100 nM.
